# In patent publication US20190091175A1, “METHOD OF REDUCTION […] TREATING DRAVET SYNDROME” (ZOGENIX INTERNATIONAL LIMITED, priority 2017, published 2019):
# Tests used:
# [1] = test system: children with refractory epilepsy; conditions: 0.5 to 1 mg/kg/day; cited from earlier work
# [2] = test system: subjects with Dravet syndrome; assay: Study 1: Phase 3 double-blind placebo-controlled study of liquid fenfluramine formulation (ZX008) in Dravet syndrome; type: in vivo, human
# Procedure: The first 119 subjects to be randomized in both identical studies combined were analyzed and reported as Study 1 (FIG. 1), covered by a Statistical Analysis Plan (SAP).
# Primary and key secondary endpoints in the Study 1 SAP were pre-determined. All patients were treated twice per day over a period of 14 weeks using an oral syringe to administer the formulation. The treatment period included a two-week titration period and a 12-week maintenance period.
# The initial results of Study 1 are outlined below. The randomized, double blind, placebo controlled, Phase 3 study enrolled 119 patients across sites in the United States, Canada, Europe and Australia. The median age of patients was 8 years, the mean age of patients was 9 years (range, 2-18 years) (FIG. 2).
# Patients were titrated to their target dose over two weeks, and then remained at that fixed dose for 12 weeks. The mean baseline convulsive seizure frequency across the study groups was approximately 40 seizures per month. 110 (92%) patients completed the study (85% 0.8 mg/kg/day; 100% 0.2 mg/kg/day; 93% placebo).
# The mean number of convulsive seizure free days, defined as a day for which diary data are available and no convulsive seizures have been reported, was determined for each treatment group during the Baseline and T+M Periods. Using a parametric analysis, comparisons for the ZX008 groups to placebo were estimated from an ANCOVA model with treatment group (3 levels) and age group (<6 years, ≥6 years) as factors, log baseline number of convulsive seizure free days as a covariate and log convulsive seizure free days (Titration+Maintenance, or Maintenance Period) as response. The mean (SD) number of convulsive seizure free days per 28 days during the Baseline Period was 12.6 (7.68), 15.7 (6.80), and 14.6 (7.59) for the placebo, 0.2 and 0.8 mg/kg/day groups, respectively. […] The mean (SD) number of convulsive seizure free days for the 0.2 mg/kg/day group was 17.9 (8.04) days, which was numerically greater than placebo, but was not statistically significant (p=0.514). […]
# [3] = test system: pattern sensitivity-induced seizures; conditions: one child; cited from earlier work
# [4] = test system: patients with Dravet syndrome; conditions: long-term fenfluramine treatment; cited from earlier work
# [5] = test system: self-induced photosensitive seizures; conditions: four cases; cited from earlier work
smiles,measurement,setting,value
"CCNC(C)Cc1cccc(C(F)(F)F)c1 (racemic) [Fenfluramine, (RS)-N-ethyl-1-[3-(trifluoromethyl)phenyl]propan-2-amine]",effect on number of seizures,[1],reduction in the number of seizures
same,subjects with an adverse event leading to study termination / discontinuation,[2]; 0.8 mg/kg/day group,Five
same,tolerability,"[2]; oral, 0.2 and 0.8 mg/kg/day, 14 weeks",generally well-tolerated
same,"prospective cardiac safety monitoring (clinical, echocardiographic)",[2]; throughout the study,no clinical or echocardiographic evidence of cardiac valvulopathy or pulmonary hypertension
same,effect on self-induced seizures resistant to anticonvulsive treatment,[3],successfully terminated these self-induced seizures
same,heart valve defects by echocardiography,[4],No clinically relevant defects were identified
same,response of self-induced photosensitive seizures,[5],responded to treatment
